# From patent US20150352108A1, “AMINO-PYRIMIDINE COMPOUNDS AS INHIBITORS OF TBK1 AND/OR IKK EPSILON” (Alzheimer's Institute of America, priority 2009, published 2015)
# Biological target: T1, IKKε (Homo sapiens, UniProt Q14164)
# T1 construct: His-tag; made in house; host or cells: Sf9 insect cells
# T1 sequence (Q14164 1-716): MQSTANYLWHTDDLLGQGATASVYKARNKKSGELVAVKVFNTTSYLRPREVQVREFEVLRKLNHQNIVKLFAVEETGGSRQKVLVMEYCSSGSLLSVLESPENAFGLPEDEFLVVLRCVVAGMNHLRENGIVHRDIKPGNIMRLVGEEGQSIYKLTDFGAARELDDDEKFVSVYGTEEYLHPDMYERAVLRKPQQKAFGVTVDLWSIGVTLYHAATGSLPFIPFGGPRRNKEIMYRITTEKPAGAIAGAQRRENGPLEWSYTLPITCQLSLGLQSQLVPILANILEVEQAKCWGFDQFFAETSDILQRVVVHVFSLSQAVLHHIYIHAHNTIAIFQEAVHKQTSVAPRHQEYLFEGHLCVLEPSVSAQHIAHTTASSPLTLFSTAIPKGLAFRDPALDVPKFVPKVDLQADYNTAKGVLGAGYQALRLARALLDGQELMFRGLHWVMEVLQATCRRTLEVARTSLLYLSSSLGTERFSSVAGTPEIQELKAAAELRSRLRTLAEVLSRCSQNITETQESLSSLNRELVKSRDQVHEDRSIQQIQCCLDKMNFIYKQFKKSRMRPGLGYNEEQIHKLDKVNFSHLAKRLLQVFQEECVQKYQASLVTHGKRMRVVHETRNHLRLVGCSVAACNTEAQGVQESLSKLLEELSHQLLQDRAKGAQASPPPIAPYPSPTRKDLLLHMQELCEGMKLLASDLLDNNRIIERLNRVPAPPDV
# Test: In-vitro IKKε kinase assay ([γ33]ATP filter-plate)
# Assay type: biochemical
# Details: text bins; read-out: IC50 for inhibition of the kinase activity of IKKε
# Method: IKKε enzyme was produced as a His-tag fusion in Sf9 cells and used at a final concentration of […]. TBK1 enzyme was produced as a His-tag fusion in Sf9 cells and used at a final concentration of 0.1 μg/ml. Kinase reactions were carried out in reaction buffer using myelin basic protein (Millipore, Ballerica, Mass.) or casein (Sigma, St. Louis, Mo.) as substrate at an ATP concentration equal to twice the Km,ATP value for each enzyme, corresponding to 32 μM ATP for IKKε and 60 μM ATP for TBK1, in the presence of 0.3 μCi [γ^33]ATP (PerkinElmer, Waltham, Mass.). Final enzyme concentrations were 0.1 or 0.015 μg/ml (IKKε) and 0.1 or 0.02 μg/ml (TBK1), representing “normal” and “sensitized” assay conditions respectively. Test compounds (or DMSO solvent as a control) were added prior to initiation of the reactions. Reactions were terminated after 30-45 minutes by adding 3% phosphoric acid. Terminated reactions were transferred to P-81 cellulose phosphate filterplates (Whatman, Inc., Piscataway, N.J.) and washed with 1% phosphoric acid on a vacuum apparatus. After air drying, scintillant (PerkinElmer, Waltham, Mass.) was added and the plates were read on a PerkinElmer TopCount NXT instrument. Counts were normalized to DMSO controls after background subtraction.
row,SMILES,IC50
1,"N#Cc1cccc(-c2ccnc(Nc3ccc(OCC(=O)N4CCOCC4)cc3)n2)c1 [compound 386, 3-[2-({4-[2-(Morpholin-4-yl)-2-oxoethoxy]phenyl}amino)pyrimidin-4-yl]benzonitrile]",50 to 500 nM
2,"CC(=O)N1CCC(COc2ccc(-c3ccnc(Nc4ccc(N5CCOCC5)cc4)n3)cc2C#N)C1 (stereo not drawn) [compound 469, 2-[(1-acetylpyrrolidin-3-yl)methoxy]-5-(2-{[4-(morpholin-4-yl)phenyl]amino}pyrimidin-4-yl)benzonitrile]",5 to 50 nM
3,"N#Cc1cc(-c2ccnc(Nc3ccc(N4CCOCC4)cc3)n2)ccc1OC1CCN(CC(=O)N2CCOCC2)CC1 [Example 234, 2-({1-[2-(morpholin-4-yl)-2-oxoethyl]piperidin-4-yl}oxy)-5-(2-{[4-(morpholin-4-yl)phenyl]amino}pyrimidin-4-yl)benzonitrile]",50 to 500 nM
4,"COc1ccc(Nc2ncc(C)c(-c3cccc(C#N)c3)n2)cc1OC [compound 304, 3-{2-[(3,4-Dimethoxyphenyl)amino]-5-methylpyrimidin-4-yl}benzonitrile]",50 to 500 nM
5,"COc1cc(Nc2nccc(-c3ccc(OC4CCOCC4)c(C#N)c3)n2)ccc1N1CCC(N2CCN(C)CC2)CC1 [compound 514, 5-[2-({3-methoxy-4-[4-(4-methylpiperazin-1-yl)piperidin-1-yl]phenyl}amino)pyrimidin-4-yl]-2-(tetrahydro-2H-pyran-4-yloxy)benzonitrile]",50 to 500 nM
6,"N#Cc1cc(-c2ccnc(Nc3cccc(NC(=O)NC4CCC(O)CC4)c3)n2)ccc1OC1CCOCC1 (stereo not drawn) [compound 589, 1-[3-({4-[3-Cyano-4-(tetrahydro-2H-pyran-4-yloxy)phenyl]pyrimidin-2-yl}amino)phenyl]-3-(4-hydroxycyclohexyl) urea]",< 5 nM
7,"N#Cc1cc(-c2ccnc(Nc3ccc(N4CCOCC4)cc3)n2)ccc1OCCNC(=O)CO [Example 197, N-{2-[2-cyano-4-(2-{[4-(morpholin-4-yl)phenyl]amino}pyrimidin-4-yl)phenoxy]ethyl}-2-hydroxyacetamide]",5 to 50 nM
8,"CC(C)COC(=O)Nc1ccc(-c2ccnc(Nc3ccc(N4CCOCC4)cc3)n2)cc1C#N [Example 180, 2-methylpropyl [2-cyano-4-(2-{[4-(morpholin-4-yl)phenyl]amino}pyrimidin-4-yl)phenyl]carbamate]",50 to 500 nM
9,"N#Cc1cc(-c2ccnc(Nc3ccc(N4CCOCC4)cc3)n2)ccc1NC(=O)C1CCCC1 [Example 56, N-[2-cyano-4-(2-{[4-(morpholin-4-yl)phenyl]amino}pyrimidin-4-yl)phenyl] cyclopentane-carboxamide]",5 to 50 nM
10,"Cn1cc(-c2ccc(Nc3nccc(-c4ccc(OC5CCOCC5)c(C#N)c4)n3)cc2)cn1 [compound 584, 5-(2-{[4-(1-Methyl-1H-pyrazol-4-yl)phenyl]amino}pyrimidin-4-yl)-2-(tetrahydro-2H-pyran-4-yloxy)benzonitrile]",< 5 nM
11,"COc1cc(NC(=O)NCCCNC(C)=O)cc(Nc2nccc(-c3ccc(OC)c(C#N)c3)n2)c1 [compound 391, N-(3-{[(3-{[4-(3-Cyano-4-methoxyphenyl)pyrimidin-2-yl]amino}-5-methoxyphenyl)carbamoyl]amino}propyl) acetamide]",50 to 500 nM
12,"N#Cc1cc(-c2ccnc(Nc3ccc(N4CCOCC4)cc3)n2)ccc1NCc1cccnc1 [Example 200, 5-(2-{[4-(Morpholin-4-yl)phenyl]amino}pyrimidin-4-yl)-2-[(pyridin-3-ylmethyl)amino] benzonitrile]",5 to 50 nM
13,COc1cc(NC(=O)NC2CCN(C)CC2)cc(Nc2nccc(-c3ccc(OC)c(C#N)c3)n2)c1 [compound 388],50 to 500 nM
14,"N#Cc1cccc(-c2ccnc(Nc3ccc4c(c3)OCCO4)n2)c1 [Example 232, 3-[2-(2,3-Dihydro-1,4-benzodioxin-6-ylamino)pyrimidin-4-yl]benzonitrile]",50 to 500 nM
15,"COc1cc(NC(=O)Nc2ccccc2)cc(Nc2nccc(-c3ccc(OC)c(C#N)c3)n2)c1 [compound 364, 1-(3-{[4-(3-Cyano-4-methoxyphenyl)pyrimidin-2-yl]amino}-5-methoxyphenyl)-3-phenylurea]",5 to 50 nM
16,CN(C)C1CCN(c2ccc(-c3ccnc(Nc4ccc(N5CCOCC5)cc4)n3)cc2C#N)C1 (stereo not drawn) [Example 69],50 to 500 nM
17,"CC(C)C(=O)NCCOc1ccc(-c2ccnc(Nc3ccc(N4CCOCC4)cc3)n2)cc1C#N [Example 153, N-{2-[2-cyano-4-(2-{[4-(morpholin-4-yl)phenyl]amino}pyrimidin-4-yl)phenoxy]ethyl}-2-methylpropanamide]",50 to 500 nM
18,"CC(C)(O)C(=O)N1CCC(Oc2ccc(-c3ccnc(Nc4ccc(N5CCOCC5)cc4)n3)cc2C#N)CC1 [Example 74, 2-{[1-(2-Hydroxy-2-methylpropanoyl)piperidin-4-yl]oxy}-5-(2-{[4-(morpholin-4-yl)phenyl]amino}pyrimidin-4-yl)benzonitrile]",50 to 500 nM
19,"N#Cc1cc(-c2ccnc(Nc3ccc(N4CCOCC4)cc3)n2)ccc1O[C@H]1CCN(C(=O)CO)C1 [compound 623, 2-{[(3S)-1-(Hydroxyacetyl)pyrrolidin-3-yl]oxy}-5-(2-{[4-(morpholin-4-yl)phenyl]amino}pyrimidin-4-yl)benzonitrile]",5 to 50 nM
20,"CN(C)CCOc1ccc(-c2ccnc(Nc3ccc(N4CCOCC4)cc3)n2)cc1C#N [Example 58, 2-[2-(Dimethylamino)ethoxy]-5-(2-{[4-(morpholin-4-yl)phenyl]amino}pyrimidin-4-yl)benzonitrile]",5 to 50 nM
21,"CC(=O)N1CCC(CCOc2ccc(-c3ccnc(Nc4ccc(N5CCOCC5)cc4)n3)cc2C#N)CC1 [Example 156, 2-[2-(1-acetylpiperidin-4-yl)ethoxy]-5-(2-{[4-(morpholin-4-yl)phenyl}amino}pyrimidin-4-yl)benzonitrile]",5 to 50 nM
22,"N#Cc1cc(-c2ccnc(Nc3ccc(N4CCOCC4)cc3)n2)ccc1NC(=O)Cc1ccccc1 [compound 435, N-[2-cyano-4-(2-{[4-(morpholin-4-yl)phenyl]amino}pyrimidin-4-yl)phenyl]-2-phenylacetamide]",50 to 500 nM
23,CC(C)(C)c1cccc(Nc2nccc(-c3cccc(C#N)c3)n2)c1 [compound 300],50 to 500 nM
24,"N#Cc1cc(-c2ccnc(Nc3ccc(N4CCOCC4)cc3)n2)ccc1OC1CCN(C(=O)C(F)(F)F)CC1 [Example 247, 5-(2-{[4-(Morpholin-4-yl)phenyl]amino}pyrimidin-4-yl)-2-{[1-(trifluoroacetyl)piperidin-4-yl]oxy}benzonitrile]",5 to 50 nM
25,"COc1cc(Nc2nccc(-c3ccc(OCC(C)C)c(C#N)c3)n2)ccc1C(=O)N1CC(OC)C1 [compound 587, 5-[2-({3-Methoxy-4-[(3-methoxyazetidin-1-yl)carbonyl]phenyl}amino)pyrimidin-4-yl]-2-(2-methylpropoxy) benzonitrile]",< 5 nM
26,"COc1ccc(-c2ccnc(Nc3cc(CN(C)C)c(OC)c(OC)c3)n2)cc1C#N [Example 174, 5-[2-({3-[(Dimethylamino)methyl]-4,5-dimethoxyphenyl}amino)pyrimidin-4-yl]-2-methoxybenzonitrile]",5 to 50 nM
27,"CC(C)(C)c1ccc(Nc2nccc(-c3cccc(C#N)c3)n2)cc1 [Example 282, 3-{2-[(4-tert-Butylphenyl)amino]pyrimidin-4-yl}benzonitrile]",50 to 500 nM
